This is an account of results in patent US20260138969A1 (Korea Research Institute of Chemical Technology, priority 2023, published 2026).

The subject of data set [1] is PC12 cells. Kind of data set: Neuronal protective efficacy against 6-OHDA (MTT). It is filed as cell-based. Particulars: Rattus norvegicus, PC-12, 6-OHDA 40 μM, Control = 100, read-out: cell viability (AVE); for viability at 0.1 µM: compound 0.1 μM; for viability at 0.3 µM: compound 0.3 μM; for viability at 1 µM: compound 1 μM. On the procedure: (§1) The neuronal toxicity substances 6-OHDA (6-hydroxydopamine hydrobromide) and MPP+ (1-methyl-4-phenylpyridinium) were purchased from Sigma-Aldrich (Saint Louis, MO, USA) and made into 100 mM DMSO stock. PC12 cells were seeded on 96-well plates with 4 pieces of 1×10 per well and incubated for one day. The cells were pretreated with each concentration of embodied compound for 1 h. Subsequently, 40 μM 6-OHDA and 2 mM MPP^+ were added and incubated for 24 hours, respectively. Subsequently, cell viability was measured using MTT (Invitrogen, MA, USA).

Data set [2] deals with PC12 cells. Nature of the data set: Neuronal protective efficacy against MPP+ (MTT). It is filed as cell-based. Particulars: Rattus norvegicus, PC-12, MPP 2 mM, Control = 100, read-out: cell viability (AVE); for viability at 0.1 µM: compound 0.1 μM; for viability at 0.3 µM: compound 0.3 μM; for viability at 1 µM: compound 1 μM. Here is the method: as §1
Data set [3] relates to CDAHFD-induced non-alcoholic steatohepatitis mouse model. Nature of the data set: CDAHFD-induced non-alcoholic steatohepatitis mouse model: liver fibrosis (Picrosirius red). It is filed as in vivo. Particulars: for Picrosirius red staining area in the liver: Selonsertib 30 mg/kg, Example 3 10 and 30 mg/kg, Example 2 10 and 30 mg/kg PO QD, CDAHFD diet 4 and 8 weeks. Here is the method: Creation of CDAHFD-induced NASH model and drug administration were carried out by dividing C57BL/6 male mice at 3 weeks of age into 7 groups as shown in Table 16 below. The control group (G1) was fed standard feed and water. Groups G2 to G7 were fed the CDAHFD (Research Diet Inc, #A06071302) diet for 4 and 8 weeks.
Picrosirius red staining was used for histological visualization of collagen fibers. Histopathology analysis evaluated the efficacy of improving liver fibrosis.
For mice in each group, three sections of the liver fixed with 4% PFA (paraformaldehyde) were prepared with paraffin blocks. Paraffin blocks were sectioned to a thickness of 5 μm (Histocore AUTOCUT R, Leica Microsystems, Germany) and the sections were mounted on silane-coated slides (MUTO, JPN) and stored until staining.
Xylene was used to remove paraffin from the slides, and the slides were moisturized and washed. The slides were stained with a solution of Picrosirius red (ab150681, Abcam, UK) and washed off with a solution of acetic acid. The slides were fitted after dehydration and cleaning using alcohol and xylene. For each section, two images of different areas were taken using a microscope (Axioscan7, ZEISS, Germany). The fibrotic area was measured using image J software compared to the total area. FIGS. 23a and 23b are graphs and images of Picrosirius red stained area ratios in the liver of a CDAHFD-induced mouse model of nonalcoholic steatohepatitis.

Another data set relates to MDR1. Nature of the data set: MDR-MDCK cell membrane permeability assessment. It is filed as in vitro ADME. Particulars: dog; MDCK-MDR1 monolayer. Here is the method:
(§2) MDCK-MDR1 cells (5×10^5 cells/mL) were incubated on a 24-transwell plate (Corning, NY, USA) for 4 days to measure permeability through a single layer of MDR-MDCK cells. The medium was replaced with a new medium every two days, and the electrical resistance between epithelial tissues (TEER) was measured using a Millicell® ERS-2 Volohmmeter (Merck KGaA, Darmstadt, Germany), and the cell membrane permeability test was performed after confirming that this value was greater than or equal to 300 Ohm.cm^2.
(§3) The apical and basolateral chambers were washed twice each in the order of Hanks' Balanced Salt Solution (HBSS) containing DPBS buffer and 10 mM Hydroxyethyl piperazine Ethane sulfonic acid (HEPES), and in the final washing step, HBSS was filled and maintained at a stable state at 37° C. for 30 minutes. After 30 minutes, the test material was instilled in each chamber and left at 37° C. for 2 hours, and the culture medium of the transferred layer was collected at 30-minute intervals, and the collected amount was supplemented with new HBSS.
(§4) The apparent permeability coefficient (Papp, cm/sec) was calculated using the following formula:
(§5) [formula] • Papp: Apparent permeability • dQ/dt: Permeability of the drug • A: Area of the filter membrane on which the cells are laid • C_0: Initial concentration of the drug
(§6) In addition, the Efflux ratio was calculated as follows: […]

Data set [4] is described as follows: MDR-MDCK cell membrane permeability assessment. The class given is in vitro ADME. Particulars: dog; MDCK-MDR1 monolayer, 37° C., 2 hours. On the procedure: as §2, §3, §4, §5, §6
In data set [5] the test system is α-Syn transgenic Parkinson's disease mouse model. Kind of data set: α-Syn transgenic Parkinson's disease mouse model: step error (beam test). It is filed as in vivo. Particulars: at 7 and 9 months; Memantine 10 mg/kg, Example 3 2/10/50 mg/kg, Example 2 2 mg/kg PO QD; vs G2. On the procedure:
The test drug was administered once daily (QD) via oral administration (PO) with a solution of 5 ml/kg for 5 months from 4 months to 9 months of age. Motor behavior tests (beam test) and neurological scores (modified Irwin test) were performed at 4 months (before administration), 7 months, and 9 months. After the final behavioral test, tissue samples were taken. Weight was measured on the same day once a week from 4 months of age until the end of the study.
The procedure described by Fleming et al. (J Neurosci, 24:9434-40, 2004) was adopted as the beam test (Challenging Beam Traversal). Exercise capacity was measured with a new beam test that was a modification of the existing beam walking test. The beam is made of Plexiglas and consists of four sections (each 25 cm and a total length of 1 m), each with a different width. The beam is designed to start at 3.5 cm wide and gradually narrow in increments of 0.5 cm×1 cm. A shelf 1 cm wide was placed 1.0 cm below the top surface of the beam.
The mouse was trained to cross the length of the beam, starting from the widest section and ending with the narrowest and most difficult section. The narrow end of the beam is designed to connect directly to the mouse's house cage. The mice were trained for two days before testing, and all training was carried out without a mesh grid. On the first day, two auxiliary exercises were performed, in which the mouse was placed on a beam and the home cage was placed close to the mouse. This induces it to move forward along the beam. […]
The error was counted if the limb (front or hind leg) passed through the grid during forward movement and was visible between the grid and the beam surface. […] Error was measured by scoring each limb slippage individually. For example, a mouse with three limbs slipping off the grid in one step was rated with an error score of 3 points, while a mouse with only one limb slipped off the grid in one step was evaluated with an error score of 1 in that step. […] The number of step errors and the time it took to cross were measured and averaged in all five experiments.

Broadly, the viability is a read-out of living cells in per cent, often relative to untreated cells. In general, efflux ratio refers to a quotient of directional permeabilities that is used to spot active efflux. The term Papp A→B denotes how fast a substance crosses the layer from the apical side. Usually Papp B→A stands for how fast a substance crosses the layer from the basolateral side. Consider `Cc1cc(F)c(C(=O)Nc2cccc(-n3nnc4c3CCC4)n2)cc1-n1cnc(C2CC2)c1` [Example 2, 5-(4-cyclopropyl-1H-imidazole-1-yl)-N-(6-(5,6-dihydrocyclopenta[d][1,2,3]triazole-1 (4H)-yl)pyridine-2-yl)-2-fluoro-4-methylbenzamide], for which, in the data set with PC12 cells [1], the viability at 0.1 µM stood at 88.8%, the viability at 0.3 µM is 91.5% and the viability at 1 µM is 96.8%. Further, in the data set with PC12 cells [2], the viability at 0.1 µM came to 83.9%, the viability at 0.3 µM was determined as 91.7% and the viability at 1 µM stood at 92.4%. Further, the “efficacy in improving liver fibrosis (Picrosirius red)” value in data set [3] (30 mg/kg PO QD, after 4 weeks of the CDAHFD diet) is “most improved efficacy”. Besides, the “Picrosirius red staining area in the liver” value in data set [3] is “significantly reduced”. The efflux ratio at 2 h with MDR1 worked out at 1.06. For the same compound, in data set [4], the apparent permeability from apical to basolateral (Papp A→B) at 2 h came out at 93.2 ± 11.2 ×10⁻⁶ cm/s and the Papp B→A at 2 h came to 99.1 ± 16.8 ×10⁻⁶ cm/s. In addition, the “number of step errors (beam test)” value in data set [5] was “significant reduction in the number of step errors compared to Group G2”.
Regarding `Cc1cc(F)c(C(=O)Nc2cccc(-n3nnc4c3CCCC4)n2)cc1-n1cnc(C2CC2)c1` [Example 3, 5-(4-cyclopropyl-1H-imidazole-1-yl)-2-fluoro-4-methyl-N-(6-(4,5,6,7-tetrahydro-1H-benzo[d][1,2,3]triazole-1-yl)pyridine-2-yl)benzamide], in the data set on PC12 cells [1], the viability at 0.1 µM was found to be 90%, the viability at 0.3 µM turned out to be 92% and the viability at 1 µM stood at 92.8%. For the same compound, in the data set with PC12 cells [2], the viability at 0.1 µM was found to be 87.4%, the viability at 0.3 µM was determined as 87.6% and the viability at 1 µM came out at 89.9%. In data set [3], the “Picrosirius red staining area in the liver” value is “significantly reduced”. Moreover, the efflux ratio at 2 h in the data set on MDR1 is 1.13. In data set [4], this compound had a Papp A→B at 2 h of 67.3 ± 12.8 ×10⁻⁶ cm/s and a Papp B→A at 2 h of 74.8 ± 12.3 ×10⁻⁶ cm/s. The “number of step errors (beam test)” value in data set [5] is “significant reduction in the number of step errors compared to Group G2”.
